Reference: PubChem BioAssay (NCI)
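Growth conditions: 96-well plates. Treatment: test compound, 48 hours, 5 concentrations. Analysis: linear interpolation between bracketing concentrations; unreached endpoints set to highest concentration. GI50 = concentration required for 50% inhibition of growth. The concentration for full growth arrest is given as TGI.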

How the values were obtained:
Experiment in all cases: inhibition of tumour cell growth, NCI panel, 48 h; in the data active = GI50 below about 0.43 µM; inactive = the rest
[1] = system: OVCAR-8 ovarian
[2] = system: K-562 leukemia
[3] = system: HOP-92 NSCLC
[4] = system: PC-3 prostate
[5] = system: HOP-62 NSCLC
[6] = system: HS 578T breast
[7] = system: T-47D breast
[8] = system: UACC-257 melanoma
[9] = system: SF-295 CNS
[10] = system: OVCAR-5 ovarian

O=C(Nc1ccc(Cc2ccccc2)cc1)Nc1nn(C(=O)Nc2ccc(Cc3ccccc3)cc2)c2ccccc12
> 100 µM: TGI [1] | TGI [2] | TGI [3] | TGI [4] | TGI [5] | TGI [6] | TGI [7] | TGI [8] | TGI [9] | TGI [10]
inactive: GI50 [1] > 100 µM | GI50 [2] 40.5 µM | GI50 [3] 18 µM | GI50 [4] > 100 µM | GI50 [5] 59.7 µM | GI50 [6] 74.2 µM | GI50 [7] > 100 µM | GI50 [8] > 100 µM | GI50 [9] > 100 µM | GI50 [10] > 100 µM

CCN1CCC(Nc2ccnc3cc(Cl)ccc23)CC1
> 100 µM: TGI [1] | TGI [2] | TGI [3] | TGI [4] | TGI [5] | TGI [7] | TGI [10]
53.6 µM: TGI [9]
inactive: GI50 [1] 34.8 µM | GI50 [2] 4.83 µM | GI50 [3] 45.3 µM | GI50 [4] 24.9 µM | GI50 [5] 21.9 µM | GI50 [6] 17.1 µM | GI50 [7] 31.3 µM | GI50 [8] 17 µM | GI50 [9] 18 µM | GI50 [10] 34.2 µM
48.9 µM: TGI [6]
32.3 µM: TGI [8]

CCCCOC(=O)c1ccc(N)cc1
89.1 µM: TGI [9]
> 100 µM: TGI [1] | TGI [2] | TGI [3] | TGI [4] | TGI [5] | TGI [6] | TGI [7] | TGI [8] | TGI [10]
inactive: GI50 [1] > 100 µM | GI50 [2] 6.66 µM | GI50 [3] 95.1 µM | GI50 [4] 9.9 µM | GI50 [5] > 100 µM | GI50 [6] 96.1 µM | GI50 [7] 47.6 µM | GI50 [8] 52.2 µM | GI50 [9] 19 µM | GI50 [10] 34.8 µM

O=c1[nH]c2ccccc2c2nc3ccccc3n12
> 100 µM: TGI [1] | TGI [2] | TGI [3] | TGI [4] | TGI [5] | TGI [6] | TGI [7] | TGI [8] | TGI [9] | TGI [10]

NC(N)=NCC1CCCCCCN1 (configuration not stated)
> 100 µM: TGI [1] | TGI [2] | TGI [3] | TGI [4] | TGI [5] | TGI [6] | TGI [7] | TGI [8] | TGI [9] | TGI [10]

COC(=O)C1=C(O)[C@H](C(=O)OC)C2(O)C(C(=O)OC)[C@H](c3ccc(OC(=O)C(C)c4ccccc4)cc3)C[C@@H]1[C@@H]2C(=O)OC (some centres not stated)
> 50 µM: TGI [1] | TGI [2] | TGI [3] | TGI [4] | TGI [5] | TGI [7] | TGI [8] | TGI [9] | TGI [10]
34.1 µM: TGI [6]
inactive: GI50 [1] 15 µM | GI50 [2] 19.4 µM | GI50 [3] > 50 µM | GI50 [4] 36.2 µM | GI50 [5] 23.8 µM | GI50 [6] 10.3 µM | GI50 [7] 12.3 µM | GI50 [8] 41.1 µM | GI50 [9] 16.1 µM | GI50 [10] > 50 µM

O=C(O)[C@H](Cc1c[nH]c2ccccc12)N1C(=O)c2ccccc2C1=O
inactive: GI50 [1] > 100 µM | GI50 [2] > 100 µM | GI50 [3] 72.3 µM
> 100 µM: TGI [1] | TGI [2] | TGI [3] | TGI [4] | TGI [5] | TGI [6] | TGI [7] | TGI [8] | TGI [9] | TGI [10]

Cc1c(O)c(N=Nc2nc3ccccc3s2)c2ccccc2c1O
> 50 µM: TGI [1] | TGI [3] | TGI [4] | TGI [5] | TGI [6] | TGI [7] | TGI [9] | TGI [10]
inactive: GI50 [1] 19.7 µM | GI50 [2] 14.7 µM | GI50 [3] 33.9 µM | GI50 [4] 32 µM | GI50 [5] > 50 µM | GI50 [6] 28.9 µM | GI50 [7] 39.2 µM | GI50 [8] 14.7 µM | GI50 [9] 24.7 µM | GI50 [10] > 50 µM
36.1 µM: TGI [8]
48.3 µM: TGI [2]

O=C1/C(=C/c2ccccc2)CN(C(=O)C(Cl)Cl)C/C1=C\c1ccccc1
3.13 µM: TGI [8]
1.68 µM: TGI [1]
2.85 µM: TGI [10]
inactive: GI50 [1] 0.442 µM | GI50 [3] 1.26 µM | GI50 [5] 1.39 µM | GI50 [6] 1.32 µM | GI50 [7] 1.19 µM | GI50 [8] 1.42 µM | GI50 [9] 0.597 µM | GI50 [10] 1.06 µM
1.08 µM: TGI [4]
3.09 µM: TGI [3]
4.11 µM: TGI [7]
active: GI50 [2] 0.134 µM | GI50 [4] 0.297 µM
2.84 µM: TGI [5]
1.86 µM: TGI [9]
6.86 µM: TGI [6]

CC(=O)O[C@H]([C@H](OC(C)=O)[C@H](C)OC(C)=O)[C@@H](/C=C/[C@@H]1CC=CC(=O)O1)OC(C)=O
61.7 µM: TGI [3]
inactive: GI50 [1] 40.6 µM | GI50 [2] > 100 µM | GI50 [3] 17.3 µM | GI50 [4] 13.9 µM | GI50 [5] 57.6 µM | GI50 [6] 54.7 µM | GI50 [7] 27.4 µM | GI50 [8] > 100 µM | GI50 [9] 15.8 µM | GI50 [10] > 100 µM
> 100 µM: TGI [1] | TGI [2] | TGI [4] | TGI [5] | TGI [6] | TGI [7] | TGI [8] | TGI [10]
45.9 µM: TGI [9]

CSc1c(C2=C(c3cn(C)c4ccccc34)C(=O)NC2=O)c2ccccc2n1C
inactive: GI50 [1] 1.56 µM | GI50 [2] 0.665 µM | GI50 [3] 0.599 µM | GI50 [4] 0.795 µM | GI50 [5] 1.38 µM | GI50 [6] 0.59 µM | GI50 [7] 1.15 µM | GI50 [8] 1.41 µM | GI50 [9] 0.671 µM | GI50 [10] 23.4 µM
> 25 µM: TGI [1] | TGI [2] | TGI [3] | TGI [4] | TGI [5] | TGI [6] | TGI [7] | TGI [8] | TGI [9] | TGI [10]

Cc1nc2c(c(N3CCCc4ccccc43)n1)CCC2
inactive: GI50 [3] 2.42 µM | GI50 [7] 30.7 µM | GI50 [8] 12.9 µM | GI50 [10] 1.7 µM
> 100 µM: TGI [1] | TGI [2] | TGI [3] | TGI [4] | TGI [5] | TGI [6] | TGI [7] | TGI [8] | TGI [9] | TGI [10]
active: GI50 [1] 0.0112 µM | GI50 [2] < 0.01 µM | GI50 [4] < 0.01 µM | GI50 [5] < 0.01 µM | GI50 [6] < 0.01 µM | GI50 [9] < 0.01 µM
